According to PubChem BioAssay AID1918935 (Molecular Pharmacology Branch, DTP, NCI, 2023):

Tested on: 324938-238-R-J1-PDC complex spheroid viability
Assay: Anticancer human tumor 324938-238-R-J1-PDC patient-derived bladder carcinoma cell line growth inhibition
Conditions: for IC50: curve of first compound; for viability, T/C: stronger effect = lower value; active means viability on the fitted dose curve at most 10% of control; inactive means the rest
How it was run: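 Complex spheroids of tumor cells with HUVEC and human MSCs, exposed to iadademstat combined with other agents. Each agent tested in half-log steps from near clinical Cmax (else 10 microM top), DMSO ≤0.25%.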

[1] = second compound 0.1 µM, first compound 0.00316 µM
[2] = second compound 0.1 µM, first compound 0.01 µM
[3] = second compound 0.1 µM, first compound 0.0316 µM
[4] = second compound 0.1 µM, first compound 0.1 µM
[5] = second compound 0.1 µM, first compound 0.316 µM
[6] = second compound 0.1 µM, first compound 1 µM
[7] = second compound 0.316 µM, first compound 0.00316 µM
[8] = second compound 0.316 µM, first compound 0.01 µM
[9] = second compound 0.316 µM, first compound 0.0316 µM
[10] = second compound 0.316 µM, first compound 0.1 µM
[11] = second compound 0.316 µM, first compound 0.316 µM
[12] = second compound 0.316 µM, first compound 1 µM
[13] = second compound 1 µM, first compound 0.00316 µM
[14] = second compound 1 µM, first compound 0.01 µM
[15] = second compound 1 µM, first compound 0.0316 µM
[16] = second compound 1 µM, first compound 0.1 µM
[17] = second compound 1 µM, first compound 0.316 µM
[18] = second compound 1 µM, first compound 1 µM
[19] = second compound 3.16 µM, first compound 0.00316 µM
[20] = second compound 3.16 µM, first compound 0.01 µM
[21] = second compound 3.16 µM, first compound 0.0316 µM
[22] = second compound 3.16 µM, first compound 0.1 µM
[23] = second compound 3.16 µM, first compound 0.316 µM
[24] = second compound 3.16 µM, first compound 1 µM
[25] = second compound 10 µM, first compound 0.00316 µM
[26] = second compound 10 µM, first compound 0.01 µM
[27] = second compound 10 µM, first compound 0.0316 µM
[28] = second compound 10 µM, first compound 0.1 µM
[29] = second compound 10 µM, first compound 0.316 µM
[30] = second compound 10 µM, first compound 1 µM
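Further: spheroids also contain HUVEC and human MSCs and agents combined with iadademstat; spheroids exposed to agents for 7 days before readout.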

CC1COCCN1c1cc(-c2ccnn2C)c2ccnc(-c3ccn[nH]3)c2n1 (stereo not given) + NC1CC1c1ccc(-c2cccc(O)c2)cc1
15.8 nM: IC50 (second compound 3.16 µM)
17.6 nM: IC50 (second compound 0.316 µM)
inactive: viability, T/C [1] 90.1% | viability, T/C [2] 73.6% | viability, T/C [3] 40.5% | viability, T/C [4] 20.6% | viability, T/C [5] 14.1% | viability, T/C [6] 12.1% | viability, T/C [7] 74% | viability, T/C [8] 61.5% | viability, T/C [9] 38.1% | viability, T/C [10] 20.6% | viability, T/C [11] 13.3% | viability, T/C [12] 11.6% | viability, T/C [13] 66.7% | viability, T/C [14] 54.7% | viability, T/C [15] 35% | viability, T/C [16] 21.5% | viability, T/C [17] 14.3% | viability, T/C [18] 10.8% | viability, T/C [19] 73.9% | viability, T/C [20] 57% | viability, T/C [21] 39.3% | viability, T/C [22] 22.1% | viability, T/C [23] 14.5% | viability, T/C [24] 12% | viability, T/C [25] 69.6% | viability, T/C [26] 54.1% | viability, T/C [27] 36.4% | viability, T/C [28] 24.2% | viability, T/C [29] 17.9% | viability, T/C [30] 13.7%
22.9 nM: IC50 (second compound 0.1 µM)
12.9 nM: IC50 (second compound 1 µM) | IC50 (second compound 10 µM)

Nc1ncn(C2CC(O)C(CO)O2)c(=O)n1 (stereo not given) + NC1CC1c1ccc(-c2cccc(O)c2)cc1
227 nM: IC50 (second compound 3.16 µM)
inactive: viability, T/C [1] 95.1% | viability, T/C [2] 90.3% | viability, T/C [3] 79.2% | viability, T/C [4] 62.8% | viability, T/C [5] 49.7% | viability, T/C [6] 43.9% | viability, T/C [7] 73.6% | viability, T/C [8] 74.5% | viability, T/C [9] 67.6% | viability, T/C [10] 52.4% | viability, T/C [11] 44.9% | viability, T/C [12] 41% | viability, T/C [13] 70.4% | viability, T/C [14] 70.9% | viability, T/C [15] 62.8% | viability, T/C [16] 57% | viability, T/C [17] 47.9% | viability, T/C [18] 41.2% | viability, T/C [19] 74.7% | viability, T/C [20] 57.7% | viability, T/C [21] 68.5% | viability, T/C [22] 56.3% | viability, T/C [23] 45.4% | viability, T/C [24] 39.3% | viability, T/C [25] 63.3% | viability, T/C [26] 73.7% | viability, T/C [27] 69.9% | viability, T/C [28] 57.6% | viability, T/C [29] 49.7% | viability, T/C [30] 41.4%
311 nM: IC50 (second compound 0.1 µM)
258 nM: IC50 (second compound 10 µM)
143 nM: IC50 (second compound 0.316 µM)
237 nM: IC50 (second compound 1 µM)

COc1ccc([C@@H](O)c2cc(-c3ncnc4cc(N5CCOCC5)ccc34)c(F)cc2Cl)nn1 + NC1CCC(NC2CC2c2ccccc2)CC1
944 nM: IC50 (second compound 3.16 µM)
1090 nM: IC50 (second compound 10 µM)
1870 nM: IC50 (second compound 0.316 µM)
inactive: viability, T/C [3] 81.4% | viability, T/C [4] 70.8% | viability, T/C [5] 63.3% | viability, T/C [6] 61.1% | viability, T/C (second compound 0.1 µM, first compound 3.16 µM) 42.8% | viability, T/C (second compound 0.1 µM, first compound 10 µM) 26.8% | viability, T/C [9] 80.8% | viability, T/C [10] 76.7% | viability, T/C [11] 61.4% | viability, T/C [12] 58% | viability, T/C (second compound 0.316 µM, first compound 3.16 µM) 47.7% | viability, T/C (second compound 0.316 µM, first compound 10 µM) 28.9% | viability, T/C [15] 72.9% | viability, T/C [16] 73.4% | viability, T/C [17] 65.2% | viability, T/C [18] 50.3% | viability, T/C (second compound 1 µM, first compound 3.16 µM) 42.6% | viability, T/C (second compound 1 µM, first compound 10 µM) 28.5% | viability, T/C [21] 70% | viability, T/C [22] 78% | viability, T/C [23] 59.3% | viability, T/C [24] 48.4% | viability, T/C (second compound 3.16 µM, first compound 3.16 µM) 38.3% | viability, T/C (second compound 3.16 µM, first compound 10 µM) 26.4% | viability, T/C [27] 64.8% | viability, T/C [28] 76.5% | viability, T/C [29] 61.6% | viability, T/C [30] 50.2% | viability, T/C (second compound 10 µM, first compound 3.16 µM) 37% | viability, T/C (second compound 10 µM, first compound 10 µM) 26%
1330 nM: IC50 (second compound 1 µM)
1750 nM: IC50 (second compound 0.1 µM)
